Laboratory results reported in PMC12608155, “Discovery of Potential Antileishmanial Compounds Through Phenotypic Screening of an Alkaloid Library” (Molecules, 2025).
Where two headings read alike, the source gives them in different places.

What was measured:
[1] = test system: L. donovani IRFP axenic amastigotes; experiment: Primary single-concentration screening on axenic amastigotes, growth inhibition at 72 h; format: cell-based, Leishmania donovani; settings: axenic amastigotes; for inhibition at 1 µM / inhibition at 10 µM: Leishmania donovani; for inhibition at 1 µM / Growth Inhibition (%) at 72h, 1 µM_Exp1 / Growth Inhibition (%) at 72h, 1 µM_Exp2: 1 µM; for inhibition at 10 µM / Growth Inhibition (%) at 72h, 10 µM_Exp1 / Growth Inhibition (%) at 72h, 10 µM_Exp2: 10 µM
[2] = test system: L. donovani IRFP axenic amastigotes; experiment: Dose-response assay on axenic amastigotes; format: cell-based, Leishmania donovani
Method: The objective of the present study was to identify new antileishmanial drug candidates by screening a commercial library of plant-derived alkaloids using a platform based on axenic amastigotes of L. donovani IRFP—the causative agent of VL—genetically modified to emit infrared fluorescence during their viable stage (hereafter referred to as L. donovani IRFP). To this end, single-dose assays at 10 μM and 1 μM, as well as dose–response assays, were performed. Compounds showing significant activity in the initial screening were subsequently clustered according to chemical structure using the DataWarrior tool, and representative compounds were further evaluated in dose response assays against axenic amastigotes.
Female Balb/c mice aged from 6 to 8 weeks were intraperitoneally inoculated with 1.5 × 10^9 infective L. donovani IRFP metacyclic promastigotes. Between 8 and 12 weeks after infection, mice were humanely euthanised and bone marrow was collected from the femurs and tibias of both hind limbs. The bones were cut at both ends, and prewarmed PBS was flushed through the medullary cavity using a syringe fitted with a 27G needle, to extract the bone marrow cells. The resulting cell suspension was filtered through a 100 µm cell strainer and centrifuged at 2500 rpm for 10 min at room temperature. To obtain free amastigotes, the pelleted cells were resuspended within a 75 mL ventilated flask in amastigote culture medium (15 mM KCl; 136 mM KH2PO4; 10 mM K2HPO4.3H2O; 0.5 mM MgSO4.7 H2O; 24 mM NaHCO3; 22 mM glucose; 1 mM glutamine, 1x RPMI 1640 vitamin mix (Sigma-Aldrich, Merck, Darmstadt, Germany), 10 mM folic acid, […], 1x RPMI amino acid mix (Sigma-Aldrich, Merck, Darmstadt, Germany), […], antibiotic mixture, 25 mM MES, 10% FBS (Gibco, ThermoFisher Scientific, Waltham, MA, USA) and incubated at 37 °C in a humidified atmosphere containing 5% CO2 [46].
The efficacy of the selected compounds was assessed by measuring near-infrared fluorescence (700 nm) using an Odyssey Infrared Imaging System (Li-Cor, Lincoln, NE, USA) following the previously described protocols.

[3] = test system: L. donovani IRFP intramacrophagic amastigotes; experiment: Dose-response assay on ex vivo infected splenic explants (intramacrophagic amastigotes); format: cell-based, Leishmania donovani; settings: read-out: EC50 Intramacrophagic Amastigotes
[4] = Cytotoxicity in RAW 264.7 cells (alamarBlue, 72 h); settings: mouse
Method: (§1) To this end, we calculated SIs from 16 preselected results from the ex vivo system. With this aim, dose–response curves were performed in duplicate across at least three independent experiments using RAW 264.7 mouse macrophages (as a model of host cells harboring amastigotes) and HepG2 (as a model for assessing systemic toxicity).
(§2) To evaluate the safety of the selected compounds, two cell lines were employed: RAW 264.7 (a mouse macrophage-derived cell line) and HepG2 (a human hepatoma cell line). Furthermore, to determine the intestinal tolerance relevant to potential oral administration, mouse intestinal organoids were prepared.
(§3) RAW 264.7 and HepG2 were routinely cultured under standard conditions. RAW 264.7 cells were maintained in RPMI medium (Gibco) supplemented with, 25 mM HEPES, 24 mM NaHCO3, 2 mM L-glutamine, mixture of antibiotics and 10% FBS. HepG2 cells were cultured in DMEM/F-12 (Gibco) and supplemented 10% of FBS. For cytotoxicity assays, 10,000 cells per well were seeded into 96-well plates and incubated overnight at 37 °C with 5% of CO2. Subsequently, 2-fold serial dilutions of the compounds were added and incubated for 72 h. Cell viability using the alamarBlue™ assay according to the manufacturer’s instructions, and fluorescence was measured with a Varioskan™ LUX microplate reader (ThermoFisher Scientific, Waltham, MA, USA). Non-linear regression analyses were performed using SigmaPlot^TM software (version 10.0) to calculate CC50. Data were obtained from at least three independent experiments performed in duplicate.

[5] = Cytotoxicity in HepG2 cells (alamarBlue, 72 h); settings: human
Method: as §1, §2, §3

[6] = test system: RAW 264.7; experiment: Cytotoxicity in RAW 264.7 cells (alamarBlue, 72 h); settings: read-out: CC50 RAW 264.7; 72 h, alamarBlue
Method: as §1, §2, §3

[7] = test system: HepG2; experiment: Cytotoxicity in HepG2 cells (alamarBlue, 72 h); settings: read-out: CC50 HepG2; 72 h, alamarBlue
Method: as §1, §2, §3

[8] = test system: mouse intestinal organoids; experiment: Tolerance of mouse intestinal organoids (alamarBlue); format: cell-based; settings: for CC50: 72 h incubation, Figure S4
Excerpt: (§4) Mouse intestinal organoids were generated following protocols standardized previously. Briefly, to obtain adult intestine stem cells, C57BL/6 mice were humanely euthanized. A section of the duodenum was excised, rinsed in ice-cold PBS, and cut into small pieces for gentle dissociation using Gentle Cell Dissociation Reagent. Tissue fragments enriched in duodenal crypts and little tissue debris were microscopically selected and resuspended in a 1:1 mixture of Geltrex™ and IntestiCult™ Mouse Medium (Gibco, ThermoFisher Scientific, Waltham, MA, USA /Stemcell Technologies^TM, Vancouver, BC, Canada). Aliquots of 50 µL of this suspension were dispensed into the center of each well of a prewarmed 24-well plate to form domes containing organoids, which were then incubated to allow matrix polymerization. Then, […] of IntestiCult™ Mouse Medium was added to each well. The plate was incubated at 37 °C in a humidified atmosphere containing 5% CO2, and the culture medium was refreshed every 48 h. During this period, organoids continued to proliferate, and passaging was performed at a 1:4 ratio every 7–10 days.
(§5) To determine the in vitro tolerance to oral administration of the active compounds, a 384-well assay was adapted from the protocol described by Du and co-workers. Briefly, following medium removal, organoids were collected from the extracellular matrix using the same procedure as for passaging. The resulting pellet was resuspended in 3.2 mL of a 1:1 mixture of Geltrex™ LDEV-Free Reduced Growth Factor Basement Membrane Matrix (without phenol red, Gibco) and IntestiCult™ Mouse Medium. Using a chilled pipette dispenser, 8 µL of the organoid suspension was dispensed into pre-cooled 384-well plates, which were then gently agitated to evenly distribute the matrix. The plates were incubated at 37 °C for 10 min and then, 32 µL of IntestiCult™ Mouse Medium was added to each well. To prevent edge effects, 100 µL of sterile water was added to the perimeter wells. After 3 days of culture, 10 µL per well of the test compounds dissolved in IntestiCult™ Mouse Medium were added. Positive (0.03% H2O2) and negative (0.2% DMSO) controls were included in each assay. After 72 h of incubation, 5 µL of alamarBlue™ HS were added to each well, and fluorescence was measured after 24 h using a Varioskan™ LUX microplate reader. All assays were conducted in triplicate and repeated in at least three independent experiments.

[9] = as above; format: cell-based; settings: C57BL/6, mouse
Excerpt: as §4, §5

[10] = experiment 1, 72 h, read-out: Growth Inhibition (%) at 72h, 1 µM_Exp1
[11] = experiment 2, 72 h, read-out: Growth Inhibition (%) at 72h, 1 µM_Exp2
[12] = experiment 1, 72 h, read-out: Growth Inhibition (%) at 72h, 10 µM_Exp1
[13] = experiment 2, 72 h, read-out: Growth Inhibition (%) at 72h, 10 µM_Exp2
[14] = Leishmania donovani, Splenocyte, primary cultures of infected mouse splenocytes
[15] = primary cultures of infected mouse splenocytes

For `CN1C(=O)/C(=C2/C(=O)Nc3ccccc32)c2ccccc21` [Meisoindigo], the inhibition at 1 µM [1, 10] was 100%, the inhibition at 1 µM [1, 11] was 100% and the inhibition at 10 µM [1, 12] was 100%. For the same compound, the inhibition at 10 µM [1, 13] was 100%, the IC50 ([2]; Leishmania donovani) was 1.53 ± 0.21 µM and the EC50 [3, 14] was 9.3 ± 0.52 µM. The CC50 at 72 h ([4]; RAW 264.7 macrophage cells) was 14.9 ± 0.9 µM and the CC50 at 72 h ([5]; HepG2 hepatoma cells) was 20.4 ± 1.4 µM.
In the case of `CC[C@@H]1[C@H]2CCCCN3[C@H]2[C@@H](C[C@H]3[C@@H]2C[C@H](C)C(=O)O2)[C@H]2[C@@H]1OC(=O)[C@H]2C` [Neotuberostemonine], the inhibition at 1 µM [1, 10] is reported as 38%, the inhibition at 1 µM [1, 11] is reported as 69.7% and the inhibition at 10 µM [1, 12] is reported as 101%. The inhibition at 10 µM [1, 13] was 101%, the IC50 ([2]; Leishmania donovani) was 1.27 ± 0.06 µM and the EC50 [3, 14] was > 25 µM. The CC50 at 72 h [4] was 39.1 ± 2.2 µM and the CC50 at 72 h [5] was > 50 µM.
In the case of `c1c2c(cc3c1OCO3)-c1cc3cc4c(cc3c[n+]1CC2)OCO4` [Pseudocoptisine], the “Growth Inhibition (%) at 72h, 1 µM_Exp1” value ([1]; experiment 1, 72 h) is reported as 65.54%, the “Growth Inhibition (%) at 72h, 1 µM_Exp2” value ([1]; experiment 2, 72 h) is reported as 88.42% and the “Growth Inhibition (%) at 72h, 10 µM_Exp1” value ([1]; experiment 1, 72 h) is reported as 97.95%. For the same compound, the “Growth Inhibition (%) at 72h, 10 µM_Exp2” value ([1]; experiment 2, 72 h) was 99.04%, the IC50 [2] was 0.81 ± 0.12 µM and the EC50 [3, 15] was 1.43 ± 0.07 µM. For the same compound, the CC50 [6] was > 10 µM, the CC50 [7] was > 10 µM and the CC50 [8] was > 10 µM.
With `COc1ccc2c(c1OC)C(OC)N(C)c1c-2ccc2cc3c(cc12)OCO3` (stereo not drawn) [Angoline] the “Growth Inhibition (%) at 72h, 1 µM_Exp1” value ([1]; experiment 1, 72 h) was 83.55%, the “Growth Inhibition (%) at 72h, 1 µM_Exp2” value ([1]; experiment 2, 72 h) was 85.33% and the “Growth Inhibition (%) at 72h, 10 µM_Exp1” value ([1]; experiment 1, 72 h) was 100.85%. For the same compound, the “Growth Inhibition (%) at 72h, 10 µM_Exp2” value ([1]; experiment 2, 72 h) was 100.07%, the IC50 [2] was 0.12 ± 0.01 µM and the EC50 [3, 15] was 1.15 ± 0.04 µM. For the same compound, the CC50 [6] was 5.28 ± 0.28 µM, the CC50 [7] was 5.15 ± 0.21 µM and the CC50 [8] was 12.6 ± 0.6 µM. For the same compound, the “Toxicity in mouse intestinal organoids (tolerance for oral administration)” value ([8]; in words) was “significant toxicity”.
With `COc1cc2c3c(cc4ccccc4c3c1OC)N(C)CC2` [Dehydronuciferine] the inhibition at 1 µM [1, 10] was 86.7%, the inhibition at 1 µM [1, 11] was 77.8% and the inhibition at 10 µM [1, 12] was 100%. The inhibition at 10 µM [1, 13] was 100%, the IC50 ([2]; Leishmania donovani) was 1.23 ± 0.03 µM and the EC50 [3, 14] was > 50 µM. It also gave a CC50 at 72 h ([4]; RAW 264.7 macrophage cells) of 18.6 ± 1.11 µM and a CC50 at 72 h ([5]; HepG2 hepatoma cells) of 25.5 ± 5.43 µM.
In the case of `c1c2c(cc3c1OCO3)-c1cc3ccc4c(c3c[n+]1CC2)OCO4` [Coptisine], the IC50 ([2]; Leishmania donovani) is reported as 2.85 ± 0.25 µM, the EC50 ([3]; Leishmania donovani, Splenocyte, in Mus musculus) is reported as 3.39 ± 0.23 µM and the CC50 at 72 h [4] is reported as > 10 µM. For the same compound, the CC50 at 72 h [5] was > 10 µM and the CC50 at 72 h [9] was > 25 µM.
`COc1cc2c(cc1OC)-c1c(C)c3ccc(OC)c(OC)c3c[n+]1CC2` [Dehydrocorydaline] showed an inhibition at 1 µM [1, 10] of 19.1%, an inhibition at 1 µM [1, 11] of -42.6% and an inhibition at 10 µM [1, 12] of 81.7%. The inhibition at 10 µM [1, 13] was 88.3%, the IC50 ([2]; Leishmania donovani) was 2.81 ± 0.49 µM and the EC50 [3, 14] was 2.68 ± 0.11 µM. The CC50 at 72 h ([4]; RAW 264.7 macrophage cells) was > 10 µM, the CC50 at 72 h ([5]; HepG2 hepatoma cells) was > 10 µM and the CC50 at 72 h ([9]; mouse intestinal organoids (from duodenal crypts), 72 h incubation, Figure S4, read-out: CC50 mouse intestinal organoids) was > 50 µM.
